Results reported in ChEMBL document CHEMBL6114940, “Exploring the pharmaceutical potential of ammonium organotrifluoroborate functional group: Comprehensive chemical, metabolic, and plasma stability evaluation” (Eur J Med Chem, 2024).

Key:
[1] = Metabolic stability in mouse liver microsomes assessed as drug hydrolysis by measuring 1-(boronomethyl)-1-(2-(2-(2-(((2R,3R,4S,5S,6R)-3,4,5-trihydroxy-6-(hydroxymethyl)tetrahydro-2H-pyran-2-yl)oxy)ethoxy)ethoxy)ethyl)piperidin-1-ium formation incubated for 1 hrs by LC-MS/MS analysis; format: ADME, Microsome
[2] = Stability of compound in 0.9 % saline solution assessed as 1-(boronomethyl)-1-(2-(2-(2-(((2R,3R,4S,5S,6R)-3,4,5-trihydroxy-6-(hydroxymethyl)tetrahydro-2H-pyran-2-yl)oxy)ethoxy)ethoxy)ethyl)piperidin-1-ium formation incubated for 72 hrs by LC-MS analysis; format: physicochemical; settings: buffer
[3] = Stability of compound in 0.3 % H2O2 assessed as (2R,3S,4S,5R,6R)-2-(hydroxymethyl)-6-(2-(2-(2-(piperidin-1-yl)ethoxy)ethoxy)ethoxy)tetrahydro-2H-pyran-3,4,5-triol formation incubated for 1 hrs by LC-MS analysis; format: physicochemical
[4] = Stability of compound in 0.5 M NaOH assessed as solvolysis constant (K) incubated for 72 hrs by LC-MS analysis; format: physicochemical; set-up: unit not given beside the values
[5] = Stability of compound in 0.9 % saline solution assessed as solvolysis constant (K) incubated for 72 hrs by LC-MS analysis; format: physicochemical; settings: buffer
[6] = Stability of compound in 20 mM CH3COONH4 buffer at pH 5.8 assessed as half life incubated for 72 hrs by LC-MS analysis; format: physicochemical; settings: 20 mM ammonium acetate (CH3COONH4) buffer
[7] = Stability of compound in 0.9 % saline solution assessed as half life incubated for 72 hrs by LC-MS analysis; format: physicochemical
[8] = Stability of compound in 50 mM Tris-HCL buffer at pH 7.4 assessed as 1-(boronomethyl)-1-(2-(2-(2-(((2R,3R,4S,5S,6R)-3,4,5-trihydroxy-6-(hydroxymethyl)tetrahydro-2H-pyran-2-yl)oxy)ethoxy)ethoxy)ethyl)piperidin1ium formation incubated for 72 hrs by LC-MS analysis; format: physicochemical; settings: pH 7.4, 72 h
[9] = Stability in mouse plasma measured after 1 hr by LC-HRMS analysis; format: ADME, cell-free; settings: read-out: Stability
[10] = Stability of compound in 0.5 M NaOH assessed as half life incubated for 72 hrs by LC-MS analysis; format: physicochemical
[11] = Stability of compound in 20 mM CH3COONH4 buffer at pH 5.8 assessed as solvolysis constant (K) incubated for 72 hrs by LC-MS analysis; format: physicochemical; set-up: unit not given beside the values; settings: pH 5.8, 72 h
[12] = Stability of compound in 50 mM Tris-HCL buffer at pH 7.4 assessed as solvolysis constant (K) incubated for 72 hrs by LC-MS analysis; format: physicochemical; settings: pH 7.4, 72 h
[13] = Stability of compound in 20 mM CH3COONH4 buffer at pH 5.8 assessed as 1-(boronomethyl)-1-(2-(2-(2-(((2R,3R,4S,5S,6R)-3,4,5-trihydroxy-6-(hydroxymethyl)tetrahydro-2H-pyran-2-yl)oxy)ethoxy)ethoxy)ethyl)piperidin-1-ium formation incubated for 72 hrs by LC-MS analysis; format: physicochemical; settings: pH 5.8, 72 h
[14] = Stability of compound in 0.5 M NaOH assessed as 1-(boronomethyl)-1-(2-(2-(2-(((2R,3R,4S,5S,6R)-3,4,5-trihydroxy-6-(hydroxymethyl)tetrahydro-2H-pyran-2-yl)oxy)ethoxy)ethoxy)ethyl)piperidin-1-ium formation incubated for 72 hrs by LC-MS analysis; format: physicochemical
[15] = Stability of compound in 0.05 M HCL assessed as solvolysis constant (K) incubated for 72 hrs by LC-MS analysis; format: physicochemical; set-up: unit not given beside the values; settings: buffer
[16] = Stability of compound in 0.5 M NaOH assessed as 1-methyl-1-(2-(2-(2-(((2R,3R,4S,5S,6R)-3,4,5-trihydroxy-6-(hydroxymethyl)tetrahydro-2H-pyran-2-yl)oxy)ethoxy)ethoxy)ethyl)piperidin-1-ium formation incubated for 72 hrs by LC-MS analysis; format: physicochemical
[17] = Stability of compound in 0.05 M HCL assessed as 1-(boronomethyl)-1-(2-(2-(2-(((2R,3R,4S,5S,6R)-3,4,5-trihydroxy-6-(hydroxymethyl)tetrahydro-2H-pyran-2-yl)oxy)ethoxy)ethoxy)ethyl)piperidin-1-ium formation incubated for 72 hrs by LC-MS analysis; format: physicochemical; settings: buffer
[18] = Stability of compound in 0.05 M HCL assessed as half life incubated for 72 hrs by LC-MS analysis; format: physicochemical
[19] = Stability of compound in 50 mM Tris-HCL buffer at pH 7.4 assessed as half life incubated for 72 hrs by LC-MS analysis; format: physicochemical
[20] = Stability of compound in 0.3 % H2O2 assessed as (2R,3S,4S,5R,6R)-2-(hydroxymethyl)-6-(2-(2-(2-morpholinoethoxy)ethoxy)ethoxy)tetrahydro-2H-pyran-3,4,5-triol formation incubated for 1 hrs by LC-MS analysis; format: physicochemical
[21] = Stability of compound in 20 mM CH3COONH4 buffer at pH 5.8 assessed as 4-(boronomethyl)-4-(2-(2-(2-(((2R,3R,4S,5S,6R)-3,4,5-trihydroxy-6-(hydroxymethyl)tetrahydro-2H-pyran-2-yl)oxy)ethoxy)ethoxy)ethyl)morpholin-4-ium formation incubated for 72 hrs by LC-MS analysis; format: physicochemical; settings: pH 5.8, 72 h
[22] = Stability of compound in 0.5 M NaOH assessed as 4-methyl-4-(2-(2-(2-(((2R,3R,4S,5S,6R)-3,4,5-trihydroxy-6-(hydroxymethyl)tetrahydro-2H-pyran-2-yl)oxy)ethoxy)ethoxy)ethyl)morpholin-4-ium formation incubated for 72 hrs by LC-MS analysis; format: physicochemical
[23] = Stability of compound in 0.9 % saline solution assessed as 4-(boronomethyl)-4-(2-(2-(2-(((2R,3R,4S,5S,6R)-3,4,5-trihydroxy-6-(hydroxymethyl)tetrahydro-2H-pyran-2-yl)oxy)ethoxy)ethoxy)ethyl)morpholin-4-ium formation incubated for 72 hrs by LC-MS analysis; format: physicochemical; settings: buffer
[24] = Stability of compound in 0.5 M NaOH assessed as 4-(boronomethyl)-4-(2-(2-(2-(((2R,3R,4S,5S,6R)-3,4,5-trihydroxy-6-(hydroxymethyl)tetrahydro-2H-pyran-2-yl)oxy)ethoxy)ethoxy)ethyl)morpholin-4-ium formation incubated for 72 hrs by LC-MS analysis; format: physicochemical
[25] = Metabolic stability in mouse liver microsomes assessed as drug hydrolysis by measuring 4-(boronomethyl)-4-(2-(2-(2-(((2R,3R,4S,5S,6R)-3,4,5-trihydroxy-6-(hydroxymethyl)tetrahydro-2H-pyran-2-yl)oxy)ethoxy)ethoxy)ethyl)morpholin-4-ium incubated for 1 hrs by LC-MS/MS analysis; format: ADME, Microsome
[26] = Stability of compound in 50 mM Tris-HCL buffer at pH 7.4 assessed as 4-(boronomethyl)-4-(2-(2-(2-(((2R,3R,4S,5S,6R)-3,4,5-trihydroxy-6-(hydroxymethyl)tetrahydro-2H-pyran-2-yl)oxy)ethoxy)ethoxy)ethyl)morpholin4ium formation incubated for 72 hrs by LC-MS analysis; format: physicochemical; settings: pH 7.4, 72 h
[27] = Stability of compound in 0.05 M HCL assessed as 4-(boronomethyl)-4-(2-(2-(2-(((2R,3R,4S,5S,6R)-3,4,5-trihydroxy-6-(hydroxymethyl)tetrahydro-2H-pyran-2-yl)oxy)ethoxy)ethoxy)ethyl)morpholin-4-ium formation incubated for 72 hrs by LC-MS analysis; format: physicochemical; settings: buffer
[28] = Stability of compound in 0.5 M NaOH assessed as N,N,N-trimethyl-1-(1-(2-(2-(2-(((2R,3R,4S,5S,6R)-3,4,5-trihydroxy-6-(hydroxymethyl)tetrahydro-2H-pyran-2-yl)oxy)ethoxy)ethoxy)ethyl)-1H-1,2,3-triazol-4-yl)methanaminium formation incubated for 72 hrs by LC-MS analysis; format: physicochemical
[29] = Stability of compound in 0.05 M HCL assessed as 1-borono-N,N-dimethyl-N-((1-(2-(2-(2-(((2R,3R,4S,5S,6R)-3,4,5-trihydroxy-6-(hydroxymethyl)tetrahydro-2H-pyran-2-yl)oxy)ethoxy)ethoxy)ethyl)-1H-1,2,3-triazol-4-yl)methyl)methanaminium formation incubated for 72 hrs by LC-MS analysis; format: physicochemical; settings: buffer
[30] = Stability of compound in 50 mM Tris-HCL buffer at pH 7.4 assessed as 1-borono-N,N-dimethyl-N-((1-(2-(2-(2-(((2R,3R,4S,5S,6R)-3,4,5-trihydroxy-6-(hydroxymethyl)tetrahydro-2H-pyran-2-yl)oxy)ethoxy)ethoxy)ethyl)-1H-1,2,3-triazol-4-yl)methyl)methanaminium formation incubated for 72 hrs by LC-MS analysis; format: physicochemical; settings: pH 7.4, 72 h
[31] = Stability of compound in 0.5 M NaOH assessed as 1-borono-N,N-dimethyl-N-((1-(2-(2-(2-(((2R,3R,4S,5S,6R)-3,4,5-trihydroxy-6-(hydroxymethyl)tetrahydro-2H-pyran-2-yl)oxy)ethoxy)ethoxy)ethyl)-1H-1,2,3-triazol-4-yl)methyl)methanaminium formation incubated for 72 hrs by LC-MS analysis; format: physicochemical
[32] = Metabolic stability in mouse liver microsomes assessed as drug hydrolysis 1-borono-N,N-dimethyl-N-((1-(2-(2-(2-(((2R,3R,4S,5S,6R)-3,4,5-trihydroxy-6-(hydroxymethyl)tetrahydro-2H-pyran-2-yl)oxy)ethoxy)ethoxy)ethyl)-1H-1,2,3-triazol-4-yl)methyl)methanaminium formation incubated for 1 hrs by LC-MS/MS analysis; format: ADME, Microsome
[33] = Stability of compound in 0.3 % H2O2 assessed as (2R,3R,4S,5S,6R)-2-(2-(2-(2-(4-((dimethylamino)methyl)-1H-1,2,3-triazol-1-yl)ethoxy)ethoxy)ethoxy)-6-(hydroxymethyl)tetrahydro-2H-pyran-3,4,5-triol formation incubated for 1 hrs by LC-MS analysis; format: physicochemical
[34] = Stability of compound in 0.9 % saline solution assessed as 1-borono-N,N-dimethyl-N-((1-(2-(2-(2-(((2R,3R,4S,5S,6R)-3,4,5-trihydroxy-6-(hydroxymethyl)tetrahydro-2H-pyran-2-yl)oxy)ethoxy)ethoxy)ethyl)-1H-1,2,3-triazol-4-yl)methyl)methanaminium formation incubated for 72 hrs by LC-MS analysis; format: physicochemical; settings: buffer
[35] = Stability of compound in 20 mM CH3COONH4 buffer at pH 5.8 assessed as 1-borono-N,N-dimethyl-N-((1-(2-(2-(2-(((2R,3R,4S,5S,6R)-3,4,5-trihydroxy-6-(hydroxymethyl)tetrahydro-2H-pyran-2-yl)oxy)ethoxy)ethoxy)ethyl)-1H-1,2,3-triazol-4-yl)methyl)methanaminium formation incubated for 72 hrs by LC-MS analysis; format: physicochemical; settings: pH 5.8, 72 h

Row | K [4] | K [5] | half-life [6] | half-life [7] | remaining at 1 h [9] | half-life [10] | K [11] | K [12] | K [15] | half-life [18] | half-life [19] | SMILES | also measured
1 | 0.14 | 0.383 | 8.82 h | 1.81 h | 14.1% | 4.95 h | 0.078 | 0.146 | 6.439 | 0.108 h | 4.76 h | OC[C@H]1O[C@@H](OCCOCCOCC[N+]2(C[B-](F)(F)F)CCCCC2)[C@H](O)[C@@H](O)[C@@H]1O | Drug metabolism [1]: metabolite_detected; Stability [2]: Stable; Stability [3]: Stable; Stability [8]: Stable; Stability [13]: Stable; Stability [14]: Stable; Stability [16]: Stable; Stability [17]: Stable
2 | 0.061 | 0.136 | 32.7 h | 5.11 h | 2.73% | 11.3 h | 0.021 | 0.068 | 2.302 | 0.301 h | 10.1 h | OC[C@H]1O[C@@H](OCCOCCOCC[N+]2(C[B-](F)(F)F)CCOCC2)[C@H](O)[C@@H](O)[C@@H]1O | Stability [20]: Stable; Stability [21]: Stable; Stability [22]: Stable; Stability [23]: Stable; Stability [24]: Stable; Drug metabolism [25]: metabolite_detected; Stability [26]: Stable; Stability [27]: Stable
3 | 0.019 | 0.018 | ≥ 15.7 h | 38.4 h | 1.2% | 36 h | 0.003 | 0.005 | 0.489 | 1.42 h | ≥ 58 h | C[N+](C)(Cc1cn(CCOCCOCCO[C@@H]2O[C@H](CO)[C@@H](O)[C@H](O)[C@H]2O)nn1)C[B-](F)(F)F | Stability [28]: Stable; Stability [29]: Stable; Stability [30]: Stable; Stability [31]: Stable; Drug metabolism [32]: metabolite_detected; Stability [33]: Stable; Stability [34]: Stable; Stability [35]: Stable
